Earlier results in patent US7666888B2, “Substituted azole aromatic heterocycles as inhibitors of 11β-HSD-1” (Amgen Inc., priority 2006, dated 2010).

Columns and labels:
normal subjects = settings: ingestion
bone nodule formation = settings: glucocorticoid effect

SMILES: CC1(C)[C@@H](OC(=O)CCC(=O)O)CC[C@]2(C)[C@H]3C(=O)C=C4[C@@H]5C[C@@](C)(C(=O)O)CC[C@]5(C)CC[C@@]4(C)[C@]3(C)CC[C@@H]12 [carbenoxolone]
- reduce the intraocular pressure (normal subjects): 20%
- Hepatic insulin sensitivity (healthy human volunteers): improved
- negative effect on bone nodule formation (bone nodule formation): blocked
